Experiments:
[1] = tested on: Lewis Lung; assay: Efficacy in mouse tumor model Lewis Lung; type: in vivo
Experimental: (§1) The efficacy of the compounds of the present invention was also tested in vivo using three well-known mouse tumor models: L1210, Lewis Lung, and Colon Carcinoma 26.

[2] = tested on: L1210; assay: Efficacy in mouse tumor model L1210; type: in vivo
Experimental: as §1

[3] = tested on: Colon Carcinoma 26; assay: Efficacy in mouse tumor model Colon Carcinoma 26; type: in vivo
Experimental: as §1

[4] = tested on: solid tumor cancers, particularly ovarian cancer and non-small cell lung carcinoma; conditions: humans; cited from earlier work
[5] = tested on: topoisomerase I; mouse tumor models; assay: Overall comparison of topoisomerase I inhibition ability, cytotoxicity and efficacy in mouse tumor models; conditions: results of Table I
[6] = tested on: topoisomerase II; conditions: cited from earlier work
[7] = in vivo; cited from earlier work

CC[C@@]1(O)C(=O)OCc2c1cc1n(c2=O)Cc2cc3c(CN(C)C)c(O)ccc3nc2-1 [Topotecan, 9-dimethylaminomethyl-10-hydroxycamptothecin]
% Inc. in Lifespan, Lewis Lung ([1]; 15 mg/kg ip): 106%
% Inc. in Lifespan, L1210 ([2]; 15 mg/kg ip): 217%
% Inc. in Lifespan, Colon 26 ([3]; 20 mg/kg sc): 45%
efficacy in clinical tests [4]: efficacy against several solid tumor cancers, particularly ovarian cancer and non-small cell lung carcinoma

CC[C@@]1(O)C(=O)OCc2c1cc1n(c2=O)Cc2cc3c4c(ccc3nc2-1)OC(CN(C)C)C4 (stereo partly drawn) [Formula IV, (8S)-2-[(dimethylamino)methyl]-8-ethyl-1,2-dihydro-8-hydroxy-11H-furano[3,2-f]-pyrano[3',4':6,7]indolizino[1,2-b]quinoline-9,12(8H,14H)-dione]
% Inc. in Lifespan, Lewis Lung ([1]; 9 mg/kg ip): 67%
biological activity compared with camptothecin and topotecan [5]: comparable to camptothecin and topotecan
% Inc. in Lifespan, L1210 ([2]; 15 mg/kg ip): 225%
% Inc. in Lifespan, Colon 26 ([3]; 20 mg/kg sc): 32%

COc1cccc2c1C(=O)c1c(O)c3c(c(O)c1C2=O)C[C@@](O)(C(=O)CO)C[C@@H]3O[C@H]1C[C@H](N)[C@H](O)[C@H](C)O1 [doxorubicin]
effect on topoisomerase II [6]: Inhibition of topoisomerase II

O=C1c2c(O)ccc(O)c2C(=O)c2c(NCCNCCO)ccc(NCCNCCO)c21 [mitoxantrone]
effect on topoisomerase II [6]: Inhibition of topoisomerase II

CC[C@@]1(O)C(=O)OCc2c1cc1n(c2=O)Cc2cc3c4c(ccc3nc2-1)OC(CN1CCOCC1)C4 (stereo partly drawn) [Formula III, (8S)-8-ethyl-1,2-dihydro-8-hydroxy-2(4-morpholinylmethyl)-11H-furano[3,2-f]-pyrano[3',4':6,7]indolizino[1,2-b]quinoline-9,12(8H,14H)-dione]
% Inc. in Lifespan, Lewis Lung ([1]; 22 mg/kg ip): > 225%
biological activity compared with camptothecin and topotecan [5]: comparable to camptothecin and topotecan
% Inc. in Lifespan, L1210 ([2]; 42 mg/kg ip): 350%
% Inc. in Lifespan, Colon 26 ([3]; 20 mg/kg sc): 45%

CC[C@@]1(O)C(=O)OCc2c1cc1n(c2=O)Cc2cc3ccccc3nc2-1 [Camptothecin]
% Inc. in Lifespan, L1210 ([2]; 12 mg/kg ip): 133%
% Inc. in Lifespan, Colon 26 ([3]; 4 mg/kg ip): 50%

(S)-10-amino-4-ethyl-4-hydroxy-1H-pyrano[3',4':6,7]indolizino[1,2-b]quinoline-3,14(4H,12H)-dione [CPT-11]
toxicity profile [7]: adverse toxicity profile

COc1cc([C@@H]2c3cc4c(cc3[C@@H](O[C@@H]3O[C@@H]5CO[C@@H](C)O[C@H]5[C@H](O)[C@H]3O)[C@H]3COC(=O)[C@H]23)OCO4)cc(OC)c1O [etoposide]
effect on topoisomerase II [6]: Inhibition of topoisomerase II

From patent US6046209A (priority 1998, dated 2000)
